Drawing on the supplement of paper PMC7695840, this text covers IC50 for 28 molecules.

Assay [1] has as its system Staphylococcus aureus MW2 delta-mecA (mecA-). Briefly: IC50 (growth, competition assay). To be noted: cefoxitin: subinhibitory. In short, it runs like this: (§1)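 Two fluorescent S. aureus MW2 strains, one carrying and one lacking the resistance gene, were pre-induced, mixed 1:1 and grown unshaken in LB in 1536-well plates for 20 h at 37 °C and 90% humidity with a subinhibitory drug dose set each day. Compounds were tested on five- or nine-point 2-fold gradients in two dye-swapped replicates. DsRed (540/590) and GFP (485/520) signals were scaled per plate between the medians of single-strain controls, and No Treatment was then set to 0.5. For each strain, IC50 was taken as the dose that halved the No Treatment signal, or else the maximal signal.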

Assay [2] deals with Staphylococcus aureus MW2 (mecA+). Briefly: IC50 (growth, competition assay). Conditions: cefoxitin: subinhibitory. In a few lines:
as §1

Where a name gives a salt, the structure may show the parent alone.

In general, IC50 refers to the concentration at which inhibition is half-maximal. Lower therefore signals inhibition by little substance.

For `CCN(CC)CCN(Cc1ccc(-c2ccc(C(F)(F)F)cc2)cc1)C(=O)Cn1c(SCc2ccc(F)cc2)nc(=O)c2c1CCC2`, the IC50 in assay [1] (fluorescent label: DsRed) is under 9.85 µM; in assay [1] (fluorescent label: GFP), under 9.85 µM; in assay [2] (fluorescent label: DsRed), under 9.85 µM; in assay [2] (fluorescent label: GFP), 10.2 µM.
Turning to `C[C@H]1COc2c(N3CCN(C)CC3)c(F)cc3c(=O)c(C(=O)O)cn1c23` [LEVAQUIN], the IC50 in assay [1] (fluorescent label: DsRed), in assay [1] (fluorescent label: GFP), in assay [2] (fluorescent label: DsRed) and in assay [2] (fluorescent label: GFP) was under 9.85 µM each time.
Regarding `CN(C)[C@@H]1C(O)=C(C(N)=O)C(=O)[C@@]2(O)C(O)=C3C(=O)c4c(O)ccc(Cl)c4[C@@](C)(O)[C@H]3C[C@@H]12` [AUREOMYCIN], the IC50 in assay [1] (fluorescent label: DsRed), in assay [1] (fluorescent label: GFP), in assay [2] (fluorescent label: DsRed) and in assay [2] (fluorescent label: GFP) was under 9.85 µM throughout.
Consider `COc1cccc2c1[C@@H]1CN(CCCCn3c(=O)[nH]c4c(sc5ncc(-c6ccccc6)nc54)c3=O)C[C@@H]1CO2` [Fiduxosin hydrochloride], for which the IC50 was 10.5 µM in assay [1] (fluorescent label: DsRed), 12.6 µM in assay [1] (fluorescent label: GFP), 28.5 µM in assay [2] (fluorescent label: DsRed) and 29.8 µM in assay [2] (fluorescent label: GFP).
Take `CSc1ccc2c(c1)N(CCC1CCCCN1C)c1ccccc1S2` (configuration not stated) [Thioridazine hydrochloride]: the IC50 in assay [1] (fluorescent label: DsRed) is under 9.85 µM; in assay [1] (fluorescent label: GFP), 14.8 µM; in assay [2] (fluorescent label: DsRed), 57.7 µM; in assay [2] (fluorescent label: GFP), 50.3 µM.
For `Cc1onc(-c2ccccc2)c1C(=O)N[C@@H]1C(=O)N2[C@@H]1SC(C)(C)[C@@H]2C(=O)O` [BACTOCILL] the same measures were under 9.85 µM, under 9.85 µM, under 9.85 µM and under 9.85 µM.
Consider `CCOc1nc2cccc(C(=O)OCc3oc(=O)oc3C)c2n1Cc1ccc(-c2ccccc2-c2noc(=O)[nH]2)cc1` [Azilsartan Medoxomil (TAK-491)], for which the IC50 was determined as 11.9 µM in assay [1] (fluorescent label: DsRed), 10.2 µM in assay [1] (fluorescent label: GFP), 48.4 µM in assay [2] (fluorescent label: DsRed) and 67 µM in assay [2] (fluorescent label: GFP).
`O=C(O)c1cn(-c2ccc(F)cc2)c2cc(N3CCNCC3)c(F)cc2c1=O` [Sarafloxacin HCl]: the IC50 in assay [1] (fluorescent label: DsRed), in assay [1] (fluorescent label: GFP), in assay [2] (fluorescent label: DsRed) and in assay [2] (fluorescent label: GFP) was under 0.498 µM throughout.
As for `NC[C@@H]1O[C@H](C23CC4CC(CC(C4)C2)C3)Cc2c1ccc(O)c2O`, the half-maximal inhibitory concentration (IC50) was 34.6 µM in assay [1] (fluorescent label: DsRed), 54.9 µM in assay [1] (fluorescent label: GFP), 34.9 µM in assay [2] (fluorescent label: DsRed) and 56 µM in assay [2] (fluorescent label: GFP).
For `N[C@@H]1CN(c2c(F)cc3c(=O)c(C(=O)O)cn([C@@H]4C[C@@H]4F)c3c2Cl)CC12CC2` [Sitafloxacin hydrate] the same measures were under 0.498 µM, under 0.498 µM, under 0.498 µM and under 0.498 µM.
`CC(=O)O[C@H]1C[C@@]2(C)[C@@H](C[C@@H](O)[C@H]3[C@@]4(C)CC[C@@H](O)[C@@H](C)[C@@H]4CC[C@@]32C)/C1=C(\CCC=C(C)C)C(=O)O` [FUCIDINE]: the IC50 in assay [1] (fluorescent label: DsRed), in assay [1] (fluorescent label: GFP), in assay [2] (fluorescent label: DsRed) and in assay [2] (fluorescent label: GFP) was under 9.85 µM each time.
Take `O=C(O)c1cccnc1Nc1cccc(C(F)(F)F)c1` [Niflumic acid]: the IC50 in assay [1] (fluorescent label: DsRed) is 25.8 µM; in assay [1] (fluorescent label: GFP), 32.3 µM; in assay [2] (fluorescent label: DsRed) it was 18.5 µM; in assay [2] (fluorescent label: GFP), 21.4 µM.
As to `C/C=C(/C(=C/C)c1ccc(O)cc1)c1ccc(O)cc1` [ESTRAGUARD], the IC50 was 18.5 µM in assay [1] (fluorescent label: DsRed), under 9.85 µM in assay [1] (fluorescent label: GFP), 30.7 µM in assay [2] (fluorescent label: DsRed) and 52.9 µM in assay [2] (fluorescent label: GFP).
On the same counts, the results for `CC[C@H](C)[C@H](N)C1=N[C@H](C(=O)N[C@@H](CC(C)C)C(=O)N[C@H](CCC(=O)O)C(=O)N[C@H](C(=O)N[C@H]2CCCCNC(=O)[C@H](CC(N)=O)NC(=O)[C@@H](CC(=O)O)NC(=O)[C@H](Cc3cnc[nH]3)NC(=O)[C@@H](Cc3ccccc3)NC(=O)[C@H]([C@@H](C)CC)NC(=O)[C@@H](CCCN)NC2=O)[C@@H](C)CC)CS1` [BACITRACIN] are 37.8 µM, 59.4 µM, over 150 µM and over 150 µM.
On the same counts, the results for `CC(=O)OCC1=C(C(=O)O)N2C(=O)[C@@H](NC(=O)CSc3ccncc3)[C@H]2SC1` [CEFADYL] are under 9.85 µM, under 9.85 µM, under 9.85 µM and under 9.85 µM.
On the same counts, the results for `CCN1C[C@H](C)n2c(c(O)c3c(=O)n(Cc4ccc(F)c(Cl)c4)nc(C(=O)NC)c32)C1=O` [MK-2048] are 39.3 µM, 40.9 µM, 80.3 µM and 64 µM.
In the case of `CC1CCc2cc(F)cc3c(=O)c(C(=O)O)cn1c23` (configuration not stated) [Flumequine], the IC50 in assay [1] (fluorescent label: DsRed), in assay [1] (fluorescent label: GFP), in assay [2] (fluorescent label: DsRed) and in assay [2] (fluorescent label: GFP) was under 9.85 µM in each case.
For the molecule `O=C(O[C@@H]1Cc2c(O)cc(O)cc2O[C@@H]1c1cc(O)c(O)c(O)c1)c1cc(O)c(O)c(O)c1` [EPIGALLOCATECHIN-3-MONOGALLATE], the IC50 in assay [1] (fluorescent label: DsRed) is under 9.85 µM; in assay [1] (fluorescent label: GFP), under 9.85 µM; in assay [2] (fluorescent label: DsRed), 45.2 µM; in assay [2] (fluorescent label: GFP) it was 63.3 µM.
On to `COC(=O)Nc1ccc(-c2nc(N3CCOCC3)c3cnn(C4CCN(Cc5cccnc5)CC4)c3n2)cc1` [WYE-687], for which the IC50 in assay [1] (fluorescent label: DsRed) is 15.1 µM; in assay [1] (fluorescent label: GFP), under 9.85 µM; in assay [2] (fluorescent label: DsRed), 49.6 µM; in assay [2] (fluorescent label: GFP), 74.8 µM.
For `CC1OC(n2cc(F)c(=O)[nH]c2=O)C(O)C1O` (configuration not stated) [5-fluoro-5'-deoxyuridine] the same measures were under 9.85 µM, under 9.85 µM, under 9.85 µM and under 9.85 µM.
For the molecule `CCCCCCCCCc1ccc(OCCOCCOCCOCCOCCOCCOCCOCCOCCO)cc1` [CONCEPTROL], the IC50 in assay [1] (fluorescent label: DsRed) is 12.8 µM; in assay [1] (fluorescent label: GFP) it was under 9.85 µM; in assay [2] (fluorescent label: DsRed), 32 µM; in assay [2] (fluorescent label: GFP), 37 µM.
On the same counts, the results for `CS(=O)(=O)c1ccc([C@@H](O)[C@@H](CF)NC(=O)C(Cl)Cl)cc1` [NUFLOR] are under 9.85 µM, under 9.85 µM, under 9.85 µM and under 9.85 µM.
For `CN(C)[C@@H]1C(=O)C(C(N)=O)=C(O)[C@@]2(O)C(=O)C3=C(O)c4c(O)ccc(Cl)c4[C@@H](O)[C@H]3C[C@@H]12` [Demeclocycline hydrochloride] the same measures were under 9.85 µM, under 9.85 µM, under 9.85 µM and under 9.85 µM.
On the same counts, the results for `CNc1nc(-c2ccc3c(N)n[nH]c3c2)cc(N2C[C@@H](C(=O)NC3CCCCC3)CC[C@H]2C)n1` are 51.4 µM, 26.4 µM, 111 µM and 111 µM.
`CN[C@H](CC(C)C)C(=O)N[C@H]1C(=O)N[C@@H](CC(N)=O)C(=O)N[C@H]2C(=O)N[C@H]3C(=O)N[C@H](C(=O)N[C@H](C(=O)O)c4cc(O)cc(O)c4-c4cc3ccc4O)[C@H](O)c3ccc(c(Cl)c3)Oc3cc2cc(c3O[C@@H]2O[C@H](CO)[C@@H](O)[C@H](O)[C@H]2O[C@H]2C[C@](C)(N)[C@H](O)[C@H](C)O2)Oc2ccc(cc2Cl)[C@H]1O` [Vancomycin HCl (Vancocin)]: the 50% inhibitory concentration (IC50) in assay [1] (fluorescent label: DsRed), in assay [1] (fluorescent label: GFP), in assay [2] (fluorescent label: DsRed) and in assay [2] (fluorescent label: GFP) was under 9.85 µM each time.
For `CNc1ccc2oc(C[C@H]3O[C@@]4(CC[C@H]3C)O[C@H]([C@H](C)C(=O)c3ccc[nH]3)[C@H](C)C[C@H]4C)nc2c1C(=O)O` [Calcimycin], the IC50 in assay [1] (fluorescent label: DsRed), in assay [1] (fluorescent label: GFP), in assay [2] (fluorescent label: DsRed) and in assay [2] (fluorescent label: GFP) was under 9.85 µM each time.
Turning to `O=C1c2ccccc2-c2nc3nonc3nc21` [SMER 3], the IC50 in assay [1] (fluorescent label: DsRed) was 20.4 µM; in assay [1] (fluorescent label: GFP) it was under 9.85 µM; in assay [2] (fluorescent label: DsRed) it was 65.9 µM; in assay [2] (fluorescent label: GFP), over 150 µM.
For `O=C(O)Cc1cc(I)c(Oc2cc(I)c(O)c(I)c2)c(I)c1` [TETRAC] the same measures were under 9.85 µM, under 9.85 µM, under 9.85 µM and under 9.85 µM.
